Assay results taken from publication PMC6336890 (Scientific Reports, 2019).

Target: PARP1 (Homo sapiens, UniProt P09874)
Assay: in vitro PARP1 activity ELISA, recombinant enzyme
Type: biochemical

PARP1, sequence (P09874 2-1014): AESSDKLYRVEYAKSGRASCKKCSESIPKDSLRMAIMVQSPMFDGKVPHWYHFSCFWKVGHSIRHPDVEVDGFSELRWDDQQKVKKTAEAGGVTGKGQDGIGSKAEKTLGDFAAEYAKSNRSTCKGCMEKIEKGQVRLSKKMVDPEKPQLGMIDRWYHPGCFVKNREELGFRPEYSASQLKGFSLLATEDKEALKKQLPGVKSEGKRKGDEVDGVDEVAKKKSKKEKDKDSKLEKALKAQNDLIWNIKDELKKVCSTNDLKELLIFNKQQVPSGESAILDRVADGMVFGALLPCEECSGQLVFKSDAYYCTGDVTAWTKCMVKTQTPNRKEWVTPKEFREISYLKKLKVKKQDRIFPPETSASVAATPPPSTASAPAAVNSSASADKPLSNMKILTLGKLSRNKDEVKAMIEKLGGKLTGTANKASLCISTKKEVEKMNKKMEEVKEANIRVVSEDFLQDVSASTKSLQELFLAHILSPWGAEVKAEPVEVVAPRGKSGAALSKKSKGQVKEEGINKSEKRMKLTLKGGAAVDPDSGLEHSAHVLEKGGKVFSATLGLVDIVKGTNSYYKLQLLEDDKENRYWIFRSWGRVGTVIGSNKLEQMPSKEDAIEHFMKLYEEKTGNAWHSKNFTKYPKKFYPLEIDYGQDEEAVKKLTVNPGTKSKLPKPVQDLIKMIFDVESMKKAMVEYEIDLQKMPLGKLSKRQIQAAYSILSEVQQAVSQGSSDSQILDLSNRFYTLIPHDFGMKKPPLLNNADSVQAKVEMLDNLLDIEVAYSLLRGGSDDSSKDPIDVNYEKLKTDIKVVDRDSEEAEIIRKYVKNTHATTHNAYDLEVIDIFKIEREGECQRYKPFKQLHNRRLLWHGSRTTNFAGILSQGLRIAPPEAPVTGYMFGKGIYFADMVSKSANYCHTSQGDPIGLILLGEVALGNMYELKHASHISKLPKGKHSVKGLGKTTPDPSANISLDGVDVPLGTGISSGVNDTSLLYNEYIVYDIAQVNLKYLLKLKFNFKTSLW

IC50: 0.54 µM
SMILES: Cc1ccc2c(=O)[nH]c(-c3ccc(C(C)(C)O)cc3)cn12 [MSC2504877]
